The values that follow are results of earlier work, collected in US20190328829A1, “TRIPARTITE COMBINATION THERAPY FOR PROSTATE CANCER” (UNIVERSITY OF MARYLAND, BALTIMORE, priority 2016, published 2019).

Each structure is given as a SMILES string.

For series [1], the system named is testosterone. Particulars: males, continuous administration.

As to `O=c1c(-c2ccc(O)cc2)coc2cc(O)cc(O)c12` [Genistein, 5,7-dihydroxy-3-(4-hydroxyphenyl)-chromen-4-one], the solubility in water result is recorded as “virtually insoluble in water”. Take `CCNC(=O)[C@@H]1CCCN1C(=O)[C@H](CCCNC(=N)N)NC(=O)[C@H](CC(C)C)NC(=O)[C@@H](CC(C)C)NC(=O)[C@H](Cc1ccc(O)cc1)NC(=O)[C@H](CO)NC(=O)[C@H](Cc1c[nH]c2ccccc12)NC(=O)[C@H](Cc1c[nH]cn1)NC(=O)[C@@H]1CCC(=O)N1` [leuprolide acetate, Leuprolide acetate]: the “testosterone reduced to castrate levels” value in series [1] is given as “below 50 ng/dL”.
